Each compound was assayed on Vcap cells (assay: Dihydrotestosterone (DHT) mediated XTT cell proliferation assay for screening AR antagonists using Vcap cells). Details: Homo sapiens, 240 h, in the presence of 0.2 nM DHT, XTT readout on Day 10, IC50 curves from 8 concentrations.
Type: cell-based
Method: Dihydrotestosterone (DHT) Mediated XTT Cell Proliferation Assay for Screening AR Antagonists Using Vcap cells
The Vcap cells (4×10^6 cells) were seeded in a T-75 flask containing DMEM with 15% FBS. After 72 hours, the media was removed; the cells were washed once and replaced with phenol red free DMEM containing 8% charcoal stripped serum. Then, the cells were starved in phenol red free DMEM with 8% charcoal stripped serum for 5 days. Following the starvation, the cells were harvested and seeded in 96 well plates (10×10^3 cells per well) in phenol red free DMEM with 8% charcoal stripped serum (Day 0). The cells were allowed to settle and on Day 4 they were treated with different concentrations of the compound (30 μM, 10 μM, 1 μM, 500 nM, 100 nM, 10 nM, 1 nM, 0.1 nM) in the presence of 0.2 nM DHT. DHT alone and a DMSO controls were also included. All treatments were done in triplicate. The drugs were replenished on Day 7 and the cells were allowed to grow for another 72 hours. On Day 10, the experiment was terminated by adding the XTT reagent (2,3-bis[2-methoxy-4-notro-5-sulfophenyl]-2H-tetrazolium-5-caboxyanilide inner salt) dissolved in Phenol red free DMEM without serum. The cells with the XTT reagents were incubated inside the CO2 incubator for 3-4 hours for color development; after which the readings were taken at […] using a spectramax Gemini plate reader.
Data fitting: The IC50 curves for the 8 compound concentrations were calculated with GraphPad Prism software using the sigmoidal dose-response function. (Graphpad Software, San Diego, Calif., USA).

Question: How did the IC50 turn out when `N#Cc1ccc(N2C(=O)N(c3ccc(Cl)cc3)[C@H]3CCCC[C@@H]32)cc1C(F)(F)F` [Example 61, 4-((3aS,7aS)-3-(4-chlorophenyl)-2-oxooctahydro-1H-benzo[d]imidazol-1-yl)-2-(trifluoromethyl)benzonitrile] was run?
Answer: The IC50 was 348 nM.

Question: How did the IC50 turn out when `N#Cc1ccc(N2C(=O)N(Cc3cc[nH]n3)[C@@H]3CCCC[C@H]32)cc1C(F)(F)F` (racemic) [Example 51, Trans-4-(3-((1H-pyrazol-3-yl)methyl)-2-oxooctahydro-1H-benzo[d]imidazol-1-yl)-2-(trifluoromethyl)benzonitrile (±)] was run?
Answer: The IC50 was 1080 nM.

Question: Which IC50 does the source give for `COCCONC(=O)c1ccc(N2C(=O)N(c3ccc(C#N)c(C(F)(F)F)c3)[C@H]3CCCC[C@@H]32)cc1F` [Example 29, 4-((3aS,7aS)-3-(4-Cyano-3-(trifluoromethyl)phenyl)-2-oxooctahydro-1H-benzo[d]imidazol-1-yl)-2-fluoro-N-(2-methoxyethoxy)benzamide] here?
Answer: Its IC50 is 176 nM.

Question: Which IC50 does the source give for `Cc1cc(N2C(=O)N(c3ccc(C#N)c(C(F)(F)F)c3)[C@@H]3COCC[C@H]32)ccn1` (racemic) [Example 72, Trans-4-(1-(2-methylpyridin-4-yl)-2-oxohexahydropyrano[3,4-d]imidazol-3(2H)-yl)-2-(trifluoromethyl)benzonitrile (±)] here?
Answer: Its IC50 is over 10000 nM.

Question: `Cc1cc(N2C(=O)N(c3ccc(C#N)c(C(F)(F)F)c3)[C@H]3COCC[C@@H]32)ccc1C(N)=O` (racemic) [Example 79, Trans-4-(3-(4-cyano-3-(trifluoromethyl)phenyl)-2-oxohexahydropyrano[3,4-c]imidazol-1(6H)-yl)-2-methylbenzamide (±)] was tested. Which IC50 did it give?
Answer: Its IC50 is 4330 nM.

Question: `N#Cc1ccc(N2C(=O)N(c3ccc(Cl)cc3)[C@@H]3CCCC[C@H]32)cc1C(F)(F)F` (racemic) [Example 60, Trans-4-(3-(4-chlorophenyl)-2-oxooctahydro-1H-benzo[d]imidazol-1-yl)-2-(trifluoromethyl)benzonitrile (±)] was tested. Which IC50 did it give?
Answer: The IC50 was 397 nM.

Question: How did the IC50 turn out when `CNC(=O)c1ccc(N2C(=O)N(c3ccc(C#N)c(C(F)(F)F)c3)[C@@H]3CCC=C[C@H]32)cc1F` (racemic) [Example 84, trans-4-(3-(4-cyano-3-(trifluoromethyl)phenyl)-2-oxo-2,3,3a,4,5,7a-hexahydro-1H-benzo[d]imidazol-1-yl)-2-fluoro-N-methylbenzamide (±)] was run?
Answer: The IC50 was 161 nM.

Question: How did the IC50 turn out when `N#Cc1ccc(N2C(=O)N(c3cnccc3C3CC3)[C@H]3CCCC[C@@H]32)cc1C(F)(F)F` [Example 62, 4-((3aS,7aS)-3-(4-cyclopropylpyridin-3-yl)-2-oxooctahydro-1H-benzo[d]imidazol-1-yl)-2-(trifluoromethyl)benzonitrile] was run?
Answer: Its IC50 is 2160 nM.

Question: For `N#Cc1ccc(N2C(=O)N(c3cccnc3F)[C@@H]3CCCC[C@H]32)cc1C(F)(F)F` (racemic) [Example 59, Trans-4-(3-(2-fluoropyridin-3-yl)-2-oxooctahydro-1H-benzo[d]imidazol-1-yl)-2-(trifluoromethyl)benzonitrile (±)], which IC50 is on record?
Answer: The IC50 was 1080 nM.

Question: Which IC50 does the source give for `N#Cc1ccc(N2C(=O)N(Cc3ccc(Cl)nc3)[C@@H]3CCCC[C@H]32)cc1C(F)(F)F` (racemic) [Example 47, Trans-4-(3-((6-chloropyridin-3-yl)methyl)-2-oxooctahydro-1H-benzo[d]imidazol-1-yl)-2-(trifluoromethyl)benzonitrile (±)] here?
Answer: The IC50 was 61.6 nM.

Question: How did the IC50 turn out when `N#Cc1ccc(N2C(=O)N(c3ccnc(F)c3)[C@@H]3CCCC[C@H]32)cc1C(F)(F)F` (racemic) [Example 10, Trans-4-(3-(2-fluoropyridin-4-yl)-2-oxooctahydro-1H-benzo[d]imidazol-1-yl)-2-(trifluoromethyl)benzonitrile (±)] was run?
Answer: Its IC50 is 365 nM.

Question: `CN(C)CCCONC(=O)c1ccc(N2C(=O)N(c3ccc(C#N)c(C(F)(F)F)c3)[C@@H]3CCCC[C@H]32)cc1F` (racemic) [Example 25, Trans 4-(3-(4-cyano-3-(trifluoromethyl)phenyl)-2-oxooctahydro-1H-benzo[d]im-idazol-1-yl)-N-(3-(dimethylamino)propoxy)-2-fluorobenzamide (±)] was tested. Which IC50 did it give?
Answer: The IC50 was 42.4 nM.

Question: Which IC50 does the source give for `Cc1n[nH]cc1N1C(=O)N(c2ccc(C#N)c(C(F)(F)F)c2)[C@@H]2CCCC[C@H]21` (racemic) [Example 52, trans-4-(3-(3-methyl-1H-pyrazol-4-yl)-2-oxooctahydro-1H-benzo[d]imidazol-1-yl)-2-(trifluoromethyl)benzonitrile (±)] here?
Answer: Its IC50 is over 10000 nM.

Question: For `CC(CO)ONC(=O)c1ccc(N2C(=O)N(c3ccc(C#N)c(C(F)(F)F)c3)[C@@H]3CCCC[C@H]32)cc1F` (mixture of isomers) [Example 24, Trans-4-(3-(4-cyano-3-(trifluoromethyl)phenyl)-2-oxooctahydro-1H-benzo[c]im-idazol-1-yl)-2-fluoro-N-((1-hydroxypropan-2-yl)oxy)benzamide (±)], which IC50 is on record?
Answer: The IC50 was 1520 nM.

Question: For `CNC(=O)c1ccc(N2C(=O)N(c3ccc(C#N)c(C(F)(F)F)c3)[C@H]3CCCC[C@@H]32)cn1` [Example 54, 5-((3aS,7aS)-3-(4-cyano-3-(trifluoromethyl)phenyl)-2-oxooctahydro-1H-benzo[d]imidazol-1-yl)-N-methylpicolinamide], which IC50 is on record?
Answer: The IC50 was 245 nM.

Question: For `CC(C)CONC(=O)c1ccc(N2C(=O)N(c3ccc(C#N)c(C(F)(F)F)c3)[C@@H]3CCCC[C@H]32)cc1F` (racemic) [Example 22, Trans-4-(3-(4-cyano-3-(trifluoromethyl)phenyl)-2-oxooctahydro-1H-benzo[d]im-idazol-1-yl)-2-fluoro-N-isobutoxybenzamide (±)], which IC50 is on record?
Answer: The IC50 was 196 nM.

Question: Which IC50 does the source give for `N#Cc1ccc(N2C(=O)N(c3ccc(C(N)=O)c(F)c3)[C@@H]3CCCC[C@H]32)cc1C(F)(F)F` (racemic) [Example 30, Trans-4-(3-(4-cyano-3-(trifluoromethyl)phenyl)-2-oxooctahydro-1H-benzo[d]im-idazol-1-yl)-2-fluorobenzamide (±)] here?
Answer: The IC50 was 76.3 nM.

Question: How did the IC50 turn out when `N#Cc1ccc(N2C(=O)N(c3ccc(C(N)=O)c(F)c3)[C@@H]3CCOC[C@H]32)cc1C(F)(F)F` (racemic) [Example 76, Trans-4-(3-(4-cyano-3-(trifluoromethyl)phenyl)-2-oxohexahydropyrano[3,4-d]imidazol-1(6H)-yl)-2-fluorobenzamide (±)] was run?
Answer: The IC50 was 2540 nM.

Question: For `CN1C(=O)N(c2ccc(C#N)c(C(F)(F)F)c2)[C@@H]2CCC(c3ccccc3)C[C@H]21` (stereo partly drawn) [Example 90, Trans-4-(3-methyl-2-oxo-5-phenyloctahydro-1H-benzo[d]imidazol-1-yl)-2-(trifluoromethyl)benzonitrile], which IC50 is on record?
Answer: Its IC50 is 372 nM.

Question: For `N#Cc1ccc(N2C(=O)N(Cc3ccc(-n4cccn4)nc3)[C@@H]3CCCC[C@H]32)cc1C(F)(F)F` (racemic) [Example 50, Trans-4-(3-((6-(1H-pyrazol-1-yl)pyridin-3-yl)methyl)-2-oxooctahydro-1H-benzo[d]imidazol-1-yl)-2-(trifluoromethyl)benzonitrile (±)], which IC50 is on record?
Answer: The IC50 was over 10000 nM.

Question: With `N#Cc1ccc(N2C(=O)N(c3ccoc3)[C@@H]3CCCC[C@H]32)cc1C(F)(F)F` (racemic) [Example 3, Trans-4-(3-(furan-3-yl)-2-oxoocta-hydro-1H-benzo[d]imidazol-1-yl)-2-trifluoromethyl)benzonitrile (±)] as the compound, how does the IC50 read?
Answer: Its IC50 is 1520 nM.

Question: For `N#Cc1ccc(N2C(=O)N(c3ccc(C(=O)NC(CO)CO)c(F)c3)[C@H]3CCCC[C@@H]32)cc1C(F)(F)F` [Example 37, 4-((3aS,7aS)-3-(4-cyano-3-(trifluoromethyl)phenyl)-2-oxooctahydro-1H-benzo[d]imidazol-1-yl)-N-(1,3-dihydroxypropan-2-yl)-2-fluorobenzamide], which IC50 is on record?
Answer: Its IC50 is 6080 nM.

Same assay, conditions: in the presence of 0.2 nM DHT, XTT readout on Day 10, IC50 curves from 8 concentrations

Question: `CNC(=O)c1ccc(N2C(=O)N(c3ccc(C#N)c(C(F)(F)F)c3)C3CCC(O)CC32)cc1F` (single isomer, unassigned) [Example 82a, Trans-4-(3-(4-cyano-3-(trifluoromethyl)phenyl)-6-hydroxy-2-oxooctahydro-1H-benzo[d]imidazol-1-yl)-2-fluoro-N-methylbenzamide (+)] was tested. Which IC50 did it give?
Answer: Its IC50 is over 10000 nM.

Question: For `N#Cc1ccc(N2C(=O)N(c3ccccc3)[C@@H]3CCCC[C@H]32)cc1C(F)(F)F` (relative stereo) [Example 5a, Trans-4-(2-oxo-3-phenyloctahydro-1H-benzo[d]imidazol-1-yl)-2-(trifluoromethyl)benzonitrile (+)], which IC50 is on record?
Answer: The IC50 was 1760 nM.

Question: How did the IC50 turn out when `CNC(=O)c1ccc(N2C(=O)N(c3ccc(C#N)c(C(F)(F)F)c3)[C@@H]3CCCC[C@H]32)cc1F` (relative stereo) [Example 1a, Trans-4-{3-[4-cyano-3-(trifluoromethyl)phenyl]-2-oxo-octahydro-1H-1,3-benzodiazol-1-yl}-2-fluoro-N-Methylbenzamide (+)] was run?
Answer: The IC50 was over 10000 nM.

Question: For `N#Cc1ccc(N2C(=O)N(c3ccc(C#N)c(C(F)(F)F)c3)[C@@H]3CCCC[C@H]32)cc1C(F)(F)F` (relative stereo) [Example 2a, Trans-4,4′-(2-oxohexahydro-1H-benzo[d]imidazole-1,3(2H)-diyl)bis(2-(trifluoromethyl)benzonitrile) (−)], which IC50 is on record?
Answer: The IC50 was 231 nM.

Question: `CNC(=O)c1ccc(N2C(=O)N(c3ccc(C#N)c(C(F)(F)F)c3)C3CCC(O)CC32)cc1F` (single isomer, unassigned) [Example 82b, Trans-4-(3-(4-cyano-3-(trifluoromethyl)phenyl)-6-hydroxy-2-oxooctahydro-1H-benzo[d]imidazol-1-yl)-2-fluoro-N-methylbenzamide (−)] was tested. Which IC50 did it give?
Answer: The IC50 was 312 nM.
